In ChEMBL document CHEMBL1649351, “Synthesis, in vitro antimicrobial and in vivo antitumor evaluation of novel pyrimidoquinolines and its nucleoside derivatives” (Eur J Med Chem, 2011):

How the values were obtained:
Format in all cases: functional
Escherichia coli = experiment: Antibacterial activity against Escherichia coli at 50 mg/disk after 24 to 28 hrs by agar disk diffusion method
Lactococcus lactis = experiment: Antibacterial activity against Streptococcus lactis at 50 mg/disk after 24 to 28 hrs by agar disk diffusion method
Candida albicans = experiment: Antifungal activity against Candida albicans at 50 mg/disk after 5 days by agar disk diffusion method
Nakaseomyces glabratus = experiment: Antifungal activity against Candida glabrata at 50 mg/disk after 5 days by agar disk diffusion method
Pseudomonas aeruginosa = experiment: Antibacterial activity against Pseudomonas aeruginosa at 50 mg/disk after 24 to 28 hrs by agar disk diffusion method
Bacillus subtilis = experiment: Antibacterial activity against Bacillus subtilis at 50 mg/disk after 24 to 28 hrs by agar disk diffusion method

Compound	diameter of the inhibition zone (DIZ) (Escherichia coli)	diameter of the inhibition zone (DIZ) (Lactococcus lactis)	diameter of the inhibition zone (DIZ) (Candida albicans)	diameter of the inhibition zone (DIZ) (Nakaseomyces glabratus)	diameter of the inhibition zone (DIZ) (Pseudomonas aeruginosa)	diameter of the inhibition zone (DIZ) (Bacillus subtilis)	inhibition zone (IZ) (Nakaseomyces glabratus)
CSc1nc2c(c(=O)[nH]1)C(c1ccc([N+](=O)[O-])cc1)C1=C(CC(C)(C)CC1=O)N2[C@@H]1O[C@H](COC(C)=O)[C@H](OC(C)=O)[C@H](OC(C)=O)[C@H]1OC(C)=O (stereo partly drawn)	25 mm	19 mm	7 mm	8 mm	23 mm	20 mm	
COc1ccc(/C=N\Nc2nc3c(c(=O)[nH]2)C(c2ccc([N+](=O)[O-])cc2)C2=C(CC(C)(C)CC2=O)N3)cc1 (stereo not drawn)	17 mm	16 mm	7 mm	8 mm	16 mm	15 mm	
CSc1nc2c(c(=O)[nH]1)C(c1ccc([N+](=O)[O-])cc1)C1=C(CC(C)(C)CC1=O)N2[C@@H]1O[C@H](CO)[C@H](O)[C@H](O)[C@H]1O (stereo partly drawn)	22 mm	20 mm	8 mm	7 mm	22 mm	21 mm	
CC1(C)CC(=O)C2=C(C1)Nc1nc3[nH]nnn3c(=O)c1C2c1ccc([N+](=O)[O-])cc1 (stereo not drawn)	20 mm	18 mm	12 mm	10 mm	19 mm	23 mm	
CC1(C)CC(=O)C2=C(C1)Nc1nc(N/N=C\c3ccccc3)[nH]c(=O)c1C2c1ccc([N+](=O)[O-])cc1 (stereo not drawn)	17 mm	18 mm	7 mm	6 mm	16 mm	17 mm	
CSc1nc2c(c(=O)[nH]1)C(c1ccc([N+](=O)[O-])cc1)C1=C(CC(C)(C)CC1=O)N2 (stereo not drawn)	13 mm	14 mm	7 mm	8 mm	14 mm	13 mm	
CSc1nc2c(c(=O)[nH]1)C(c1ccc([N+](=O)[O-])cc1)C1=C(CC(C)(C)CC1=O)N2[C@@H]1O[C@H](COC(C)=O)[C@@H](OC(C)=O)[C@@H]1OC(C)=O (stereo partly drawn)	21 mm	20 mm	8 mm	9 mm	23 mm	19 mm	
NYSTATIN							20 mm
CCn1cc(C(=O)O)c(=O)c2ccc(C)nc21 [NALIDIXIC ACID]	25 mm	25 mm			25 mm	25 mm	
Cc1n[nH]c2nc3c(c(=O)n12)C(c1ccc([N+](=O)[O-])cc1)C1=C(CC(C)(C)CC1=O)N3 (stereo not drawn)	18 mm	21 mm	11 mm	11 mm	22 mm	18 mm	
